Assay results reported in patent publication EP0912571B1, “NAPHTHYRIDINES WHICH AFFECT IL-4 AND G-CSF” (SCHERING CORPORATION, priority 1996, dated 1997).

Assays:
[1] = system: bone marrow steady-state G-CSF mRNA; assay: Endogenous G-CSF in CY-dosed mice: bone marrow steady-state G-CSF mRNA by PCR; format: in vivo; conditions: CY-dosed mice administered compound AA
Experimental: Acceleration of neutrophil recovery by compound AA may occur by stimulating neutrophil development at the level of the bone marrow (see Demetri et al 1991 Blood 78: 2791).To confirm that compound AA was acting in vivo by enhancing endogenous G-CSF production, bone marrow steady-state G-CSF mRNA levels were determined by PCR.

[2] = system: TNFα, TNFβ, IL-1α, IL-1 β, IL-3, IL-6, IL-8, or GM-CSF; assay: Specificity: production of other cytokines in the PBMNC culture (ELISA); format: cell-based, human; conditions: PHA-stimulated PBMNC's
Experimental: (§1) In order to determine the effect of compound AA on human G-CSF production, human peripheral blood mononuclear cells (PBMNC's) were prepared (as described in Ficoll-Paque: For in vitro isolation of lymphocytes (booklet) 1983 Pharmacia, Uppsala Sweden; which is hereby incorporated by reference) and cultured as described (in Oster et al, 1989 Blood 73:64. which is hereby incorporated by reference) with 5µg/ml phytohemagglutin (PHA) in the presence of varying concentrations of compound AA or vehicle (0.1% dimethylsulfoxide, DMSO). After 40 hours, culture supernatant was collected and cytokine levels measured by ELISA (R&D Systems, Minneapolis MN). Alternatively mRNA was prepared by standard protocols from these cells after 24 hour incubation, reverse-transcribed and subjected to polymerase chain reaction (PCR)
This effect was specific for G-CSF, since no change in the production of TNFα, TNFβ, IL-1α, IL-1 β, IL-3, IL-6, IL-8, or GM-CSF was observed.

[3] = system: BALB/cJ mice; assay: In vivo acceleration of recovery from neutropenia in cyclophosphamide-treated mice (flow cytometry of granulocytes); conditions: for granulocyte recovery: return to normal numbers: 40 mg/kg daily from day 1 after single sublethal dose of CY on day 0
Experimental: To test the activity of compound AA in enhancing peripheral neutrophil numbers and accelerating recovery of the neutrophil compartment, BALB/cJ mice were rendered neutropenic by treatment with a single sublethal dose of CY on day 0. Mice were then treated daily, starting on day 1, with 40 mg/kg compound AA or vehicle (carboxymethyl cellulose CMC) and sacrificed on days 3, 5, 6, 8 or 10 and granulocyte populations in peripheral blood and spleen analyzed by flow cytometry. Granulocytes were detected using the RB6-8C5 antibody, specific for granulocytes (see Hestdal et al 1991 J. Immunol. 147:22. which is hereby incorporated by reference) and the Mac-1 antibody, specific for myeloid cells (see Springer et al JEur. J. lmmunol. 9: 301). […] Compound AA administration accelerated granulocyte recovery in both blood and spleen, with a return to normal numbers by day 5 in blood and day 4 in spleen. These granulocytes were confirmed to be exclusively segmented neutrophils by cytological examination. Neutrophil recovery was delayed by 1-2 days in CY-dosed mice given vehicle, compared to compound AA - treated animals. No changes in percentage or number of monocytes were observed.

[4] = system: mice made neutropenic with CY; assay: Comparison of compound AA with rhG-CSF in the CY neutropenia model; format: in vivo; conditions: compound AA at 40mg/kg daily, granulocyte levels in peripheral blood on day 5
Experimental: Exogeneous G-CSF administration is now standard therapy for patients undergoing a neutropenic episode In order to compare compound AA treatment with G-CSF therapy in the CY model described above, we administered either compound AA or recombinant human G-CSF daily to mice made neutropenic with CY. Granulocyte levels in peripheral blood were determined on day 5.

[5] = system: human G-CSF production; assay: In vitro enhancement of G-CSF production in PHA-stimulated PBMNC's (ELISA of culture supernatant); format: cell-based; conditions: PBMNC's with 5µg/ml PHA
Experimental: as §1

[6] = system: G-CSF mRNA; assay: Steady-state G-CSF mRNA levels in stimulated cell cultures (reverse transcription, PCR); format: cell-based, human
[7] = 40 mg/kg daily, CY-treated mice

## CC(=O)Nc1ccc(S(=O)(=O)Nc2nc(-c3ncccc3C)cc3cccnc23)cc1 [compound AA]
[1]
  bone marrow G-CSF mRNA levels: enhanced
[2]
  change in the production of TNFα, TNFβ, IL-1α, IL-1 β, IL-3, IL-6, IL-8, or GM-CSF: no change
[3]; 40 mg/kg daily
  delay of neutrophil recovery in CY-dosed mice given vehicle, compared to compound AA-treated animals: 1 to 2 days
[3]; [7]
  changes in percentage or number of monocytes: No changes
  gross toxicity or abnormalities: No evidence of gross toxicity or abnormalities
[3]; blood
  granulocyte recovery: return to normal numbers: ≤ 5 days
[3]; spleen
  granulocyte recovery: return to normal numbers: ≤ 4 days
[4]
  ability to enhance peripheral blood neutrophil numbers versus 250mg/kg rhG-CSF: comparable
  ability to enhance peripheral blood neutrophil numbers versus 50-125mg/kg rhG-CSF: greater
[5]; Homo sapiens, G-CSF levels, 40 hours, read-out: effective concentration50 (EC50)
  EC50: 15 µM
[5]; supernatant after 40 hours, ELISA
  increase in G-CSF levels: 4-5 fold
[6]; LPS-stimulated monocytes
  Steady-state G-CSF mRNA levels: increased
[6]; PHA-stimulated PBMNC's
  Steady-state G-CSF mRNA levels: increased
